From ChEMBL document CHEMBL1681745, “Synthesis and photophysical properties of new SNARF derivatives as dual emission pH sensors” (Bioorg Med Chem Lett, 2011)

Tests used:
[1] = Dissociation constant, pKa of the compound by UV spectrum analysis; assay type: physicochemical
[2] = system: V79; test: Cellular uptake in chinese hamster V79 cells at 10 uM after 1 hr by flow cytometry; assay type: ADME, cell-based, Cricetulus griseus; settings: v79, 1 h

| Structure (SMILES) | pKa [1] | Drug uptake [2] |
| --- | --- | --- |
| CN(C)c1ccc2c(c1)Oc1c(ccc3cc(O)ccc13)C21OC(=O)c2c(Cl)c(Cl)c(Cl)c(Cl)c21 (stereo unspecified) | 7.9 | Active |
| C[N+](C)=c1ccc2c(-c3ccccc3C(=O)O)c3ccc4cc(O)ccc4c3oc-2c1 | 7.62 | Active |
| CN(C)c1ccc2c(c1)Oc1c(ccc3cc(O)ccc13)C21OC(=O)c2c(F)c(F)c(F)c(F)c21 (stereo unspecified) | 7.38 | Active |
